According to publication PMC11183015, “In vivo stable ^211At-labeled prostate-specific membrane antigen-targeted tracer using a neopentyl glycol structure” (EJNMMI Radiopharmacy and Chemistry, 2024):
Marks after values point to notes of the source that are not given here.

Key:
Type in all cases: in vivo, mouse
[1] = Biodistribution of radioactivity in normal mice
Experimental: Six-week-old male ddY mice were injected via the tail vein with each radiolabeled PSMA derivative. Animals were sacrificed and the organs were dissected at 10 min, 1 h, 3 h, and 6 h after injection. Metabolic cages were used for housing normal mice. The tissues of interest were excised and weighed, and the radioactivity counts in each tissue were determined using an auto-well gamma counter. Each value was expressed as the mean percent injected dose/g tissue ± SD for a group of 3–5 animals, except those for the stomach, intestine, and thyroid.

LNCaP cell xenografts = experiment: Biodistribution of radioactivity in tumor-bearing mice; settings: for Radioactivity in Intestine / Radioactivity in Neck / Radioactivity in Stomach: LNCaP tumor-bearing BALB/c-nu/nu mice; for Radioactivity in Blood / Radioactivity in Bone / Radioactivity in Heart / Radioactivity in Kidney / Radioactivity in Liver / Radioactivity in Lung / Radioactivity in Muscle / Radioactivity in Pancreas / Radioactivity in Spleen / Radioactivity in Tumor: male, BALB/c-nu/nu, mouse, in vivo
Experimental: Animal studies were conducted in accordance with the institutional guidelines approved by the Chiba University Animal Care Committee (Permit No. 4–183). Five-week-old male ddY mice and BALB/c-nu/nu mice were purchased from Japan SLC Inc. (Hamamatsu, Japan). LNCaP cells (5.0 × 10^6 cells) were suspended in 100 μL of PBS and Matrigel (BD Biosciences, Franklin Lakes, NJ, USA) in a 1:1 ratio. Tumor xenograft models were prepared via subcutaneous injection of this LNCaP cell suspension into BALB/c nude mice.
(§1) Biodistribution studies were conducted using male BALB/c-nu/nu mice bearing LNCaP cell xenografts at 1 and 3 h postinjection of [^211At]At-NpG-D-PSMA (100 µL, 37 kBq) and 1 and 6 h postinjection of ^125I-labeled PSMA derivative (100 µL, 11.1 kBq). In the blocking study, [^125I]I-NpG-D-PSMA was coinjected with 2-PMPA (50 mg/kg weight) into tumor-bearing mice via the tail vein. At 1 h postinjection, the mice were sacrificed. The tissues of interest were excised and weighed, and the radioactivity counts in each tissue were determined using an auto-well gamma counter. Each value was expressed as the mean percent injected dose/g tissue ± SD for a group of 3–5 animals, except those for the stomach, intestine, and thyroid.

[2] = Analysis of radiometabolites in urine by RP-HPLC; settings: normal ddY mice, urine up to 6 h after injection
Experimental: Urine samples were collected from 6-week-old ddY mice 6 h after injection of each ^125I-labeled PSMA derivative (100 µL, 370 kBq). After ethanol precipitation of proteins, the urine samples were filtered through a polycarbonate membrane (0.45 µm) and analyzed by RP-HPLC (System 2).

PSMA = PSMA (Homo sapiens, UniProt Q04609); experiment: Blocking study with 2-PMPA in tumor-bearing mice; set-up: Tumor accumulation of [^125I]I-NpG-D-PSMA with or without 2-PMPA; from tissue; host or cells: LNCaP xenograft tumor in male BALB/c-nu/nu mice; settings: LNCaP tumor-bearing mice, 2-PMPA 50 mg/kg coinjected, 1 h
Sequence of PSMA (Q04609 whole entry): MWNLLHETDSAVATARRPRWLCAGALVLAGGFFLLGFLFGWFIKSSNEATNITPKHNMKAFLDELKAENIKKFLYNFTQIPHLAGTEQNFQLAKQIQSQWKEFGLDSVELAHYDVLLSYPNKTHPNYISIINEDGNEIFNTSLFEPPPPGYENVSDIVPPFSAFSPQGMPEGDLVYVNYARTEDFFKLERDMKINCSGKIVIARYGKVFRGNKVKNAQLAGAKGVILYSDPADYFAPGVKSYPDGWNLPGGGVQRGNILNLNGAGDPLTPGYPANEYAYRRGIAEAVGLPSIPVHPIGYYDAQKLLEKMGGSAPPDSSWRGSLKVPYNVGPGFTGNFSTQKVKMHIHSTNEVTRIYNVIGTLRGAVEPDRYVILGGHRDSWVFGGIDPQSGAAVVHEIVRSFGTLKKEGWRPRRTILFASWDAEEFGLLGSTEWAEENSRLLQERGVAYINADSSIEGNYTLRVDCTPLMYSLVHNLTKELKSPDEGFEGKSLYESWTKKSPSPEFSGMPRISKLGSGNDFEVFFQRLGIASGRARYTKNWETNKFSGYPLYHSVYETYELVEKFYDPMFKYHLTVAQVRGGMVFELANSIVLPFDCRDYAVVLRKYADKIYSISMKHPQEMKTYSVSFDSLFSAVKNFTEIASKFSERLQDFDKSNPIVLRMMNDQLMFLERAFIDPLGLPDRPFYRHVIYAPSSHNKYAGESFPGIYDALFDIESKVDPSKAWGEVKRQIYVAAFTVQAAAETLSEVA
Experimental: as §1

[3] = normal ddY mice, i.v., 6 h, metabolic cages

Radioactivity in Blood ([1]; normal ddY mice, i.v., 10 min): 1.31 ± 0.10^c %ID/g | Radioactivity in Bone ([1]; normal ddY mice, i.v., 10 min): 0.71 ± 0.07^c %ID/g | Radioactivity in Heart ([1]; normal ddY mice, i.v., 10 min): 0.76 ± 0.08^c %ID/g | Radioactivity in Intestine ([1]; normal ddY mice, i.v., 10 min): 2.76 ± 0.02^c %ID | Radioactivity in Kidney ([1]; normal ddY mice, i.v., 10 min): 58.5 ± 2.27^c %ID/g | Radioactivity in Liver ([1]; normal ddY mice, i.v., 10 min): 0.83 ± 0.12^c %ID/g | Radioactivity in Lung ([1]; normal ddY mice, i.v., 10 min): 2.11 ± 0.16^c %ID/g | Radioactivity in Muscle ([1]; normal ddY mice, i.v., 10 min): 0.47 ± 0.07^c %ID/g | Radioactivity in Neck ([1]; normal ddY mice, i.v., 10 min): 0.48 ± 0.06^c %ID | Radioactivity in Pancreas ([1]; normal ddY mice, i.v., 10 min): 0.63 ± 0.15^c %ID/g | Radioactivity in Spleen ([1]; normal ddY mice, i.v., 10 min): 2.09 ± 0.83 %ID/g | Radioactivity in Stomach ([1]; normal ddY mice, i.v., 10 min): 0.28 ± 0.06 %ID | Radioactivity in Blood ([1]; normal ddY mice, i.v., 1 h): 0.18 ±0.02 %ID/g | Radioactivity in Bone ([1]; normal ddY mice, i.v., 1 h): 0.30 ± 0.25 %ID/g | Radioactivity in Heart ([1]; normal ddY mice, i.v., 1 h): 0.14 ± 0.7 %ID/g | Radioactivity in Intestine ([1]; normal ddY mice, i.v., 1 h): 2.97 ± 0.24^c %ID | Radioactivity in Kidney ([1]; normal ddY mice, i.v., 1 h): 74.6 ± 14.9^c %ID/g | Radioactivity in Liver ([1]; normal ddY mice, i.v., 1 h): 0.17 ± 0.07 %ID/g | Radioactivity in Lung ([1]; normal ddY mice, i.v., 1 h): 0.38 ± 0.06 %ID/g | Radioactivity in Muscle ([1]; normal ddY mice, i.v., 1 h): 0.11 ± 0.08 %ID/g | Radioactivity in Neck ([1]; normal ddY mice, i.v., 1 h): 0.11 ± 0.03^c %ID | Radioactivity in Spleen ([1]; normal ddY mice, i.v., 1 h): 0.20 ± 0.01 %ID/g | Radioactivity in Stomach ([1]; normal ddY mice, i.v., 1 h): 0.18 ± 0.00 %ID | Radioactivity in Blood ([1]; normal ddY mice, i.v., 3 h): 0.04 ± 0.02 %ID/g | Radioactivity in Bone ([1]; normal ddY mice, i.v., 3 h): 0.21 ± 0.28 %ID/g | Radioactivity in Heart ([1]; normal ddY mice, i.v., 3 h): 0.05 ± 0.04 %ID/g | Radioactivity in Intestine ([1]; normal ddY mice, i.v., 3 h): 3.30 ± 0.08^c %ID | Radioactivity in Kidney ([1]; normal ddY mice, i.v., 3 h): 22.9 ± 16.5 %ID/g | Radioactivity in Liver ([1]; normal ddY mice, i.v., 3 h): 0.05 ± 0.03 %ID/g | Radioactivity in Lung ([1]; normal ddY mice, i.v., 3 h): 0.12 ± 0.05 %ID/g | Radioactivity in Muscle ([1]; normal ddY mice, i.v., 3 h): 0.05 ± 0.03 %ID/g | Radioactivity in Neck ([1]; normal ddY mice, i.v., 3 h): 0.03 ± 0.02^c %ID | Radioactivity in Pancreas ([1]; normal ddY mice, i.v., 3 h): 0.20 ± 0.31 %ID/g | Radioactivity in Spleen ([1]; normal ddY mice, i.v., 3 h): 0.07 ± 0.05 %ID/g | Radioactivity in Stomach ([1]; normal ddY mice, i.v., 3 h): 0.27 ± 0.10^c %ID | Radioactivity in Blood ([1]; normal ddY mice, i.v., 6 h): 0.03 ± 0.01 %ID/g | Radioactivity in Bone ([1]; normal ddY mice, i.v., 6 h): 0.16 ± 0.17 %ID/g | Radioactivity in Heart ([1]; normal ddY mice, i.v., 6 h): 0.03 ± 0.01 %ID/g | Radioactivity in Intestine ([1]; normal ddY mice, i.v., 6 h): 6.19 ± 4.27 %ID | Radioactivity in Kidney ([1]; normal ddY mice, i.v., 6 h): 17.5 ± 5.43^c %ID/g | Radioactivity in Liver ([1]; normal ddY mice, i.v., 6 h): 0.05 ±0.03 %ID/g | Radioactivity in Lung ([1]; normal ddY mice, i.v., 6 h): 0.08 ± 0.00^c %ID/g | Radioactivity in Muscle ([1]; normal ddY mice, i.v., 6 h): 0.06 ± 0.07 %ID/g | Radioactivity in Neck ([1]; normal ddY mice, i.v., 6 h): 0.07 ± 0.09 %ID | Radioactivity in Pancreas ([1]; normal ddY mice, i.v., 6 h): 0.09 ± 0.12 %ID/g | Radioactivity in Spleen ([1]; normal ddY mice, i.v., 6 h): 0.05 ± 0.05 %ID/g | Radioactivity in Stomach ([1]; normal ddY mice, i.v., 6 h): 0.86 ± 0.65 %ID | Radioactivity in Feces [1, 3]: 0.66 ± 0.50 %ID | Radioactivity in Urine [1, 3]: 30.7 ± 2.85^c %ID | Accumulation in the stomach and thyroid (stability against deiodination) ([1]; normal mice): low accumulation | Radioactivity in Intestine (LNCaP cell xenografts; 1 h): 1.66 ± 0.29 %ID | Radioactivity in Neck (LNCaP cell xenografts; 1 h): 0.77 ± 0.17 %ID | Radioactivity in Stomach (LNCaP cell xenografts; 1 h): 0.19 ± 0.04 %ID | Radioactivity in Intestine (LNCaP cell xenografts; 6 h): 1.51 ± 0.61 %ID | Radioactivity in Neck (LNCaP cell xenografts; 6 h): 0.10 ± 0.01 %ID | Radioactivity in Stomach (LNCaP cell xenografts; 6 h): 0.17 ± 0.10 %ID | Radioactivity in Blood (LNCaP cell xenografts; 1 h): 0.64 ± 0.04 %ID/g | Radioactivity in Bone (LNCaP cell xenografts; 1 h): 0.25 ± 0.02 %ID/g | Radioactivity in Heart (LNCaP cell xenografts; 1 h): 0.89 ± 0.09 %ID/g | Radioactivity in Kidney (LNCaP cell xenografts; 1 h): 275 ± 17.6 %ID/g | Radioactivity in Liver (LNCaP cell xenografts; 1 h): 0.79 ± 0.06 %ID/g | Radioactivity in Lung (LNCaP cell xenografts; 1 h): 2.80 ± 0.09 %ID/g | Radioactivity in Muscle (LNCaP cell xenografts; 1 h): 0.27 ± 0.05 %ID/g | Radioactivity in Pancreas (LNCaP cell xenografts; 1 h): 0.84 ± 0.25 %ID/g | Radioactivity in Spleen (LNCaP cell xenografts; 1 h): 30.5 ± 7.49 %ID/g | Radioactivity in Tumor (LNCaP cell xenografts; 1 h): 20.4 ± 6.92 %ID/g | Radioactivity in Blood (LNCaP cell xenografts; 6 h): 0.06 ± 0.03 %ID/g | Radioactivity in Bone (LNCaP cell xenografts; 6 h): 0.07 ± 0.02 %ID/g | Radioactivity in Heart (LNCaP cell xenografts; 6 h): 0.10 ± 0.04 %ID/g | Radioactivity in Kidney (LNCaP cell xenografts; 6 h): 160 ± 89.9 %ID/g | Radioactivity in Liver (LNCaP cell xenografts; 6 h): 0.07 ± 0.03 %ID/g | Radioactivity in Lung (LNCaP cell xenografts; 6 h): 0.22 ± 0.09 %ID/g | Radioactivity in Muscle (LNCaP cell xenografts; 6 h): 0.07 ± 0.04 %ID/g | Radioactivity in Pancreas (LNCaP cell xenografts; 6 h): 0.12 ± 0.05 %ID/g | Radioactivity in Spleen (LNCaP cell xenografts; 6 h): 1.55 ± 0.75 %ID/g | Radioactivity in Tumor (LNCaP cell xenografts; 6 h): 20.8 ± 6.84 %ID/g | Form of radioactivity excreted in urine [2]: only intact [^125I]I-NpG-D-PSMA | Accumulation in the tumor and spleen with coinjected 2-PMPA (PSMA): inhibited by 2-PMPA
Compound: O=C(O)CCC(NC(=O)NC(CCCCNC(=O)C(Cc1ccc2ccccc2c1)NC(=O)C(CCC(=O)O)NC(=O)C(CCC(=O)O)NC(=O)COCC(CO)(CO)C[125I])C(=O)O)C(=O)O [[^125I]I-NpG-D-PSMA]
